Laboratory results reported in the NIST ThermoML archive (doi:10.1021/acs.jced.6b00142).
Where “and” joins values, the source holds several entries; their conditions need not be identical. Equal entries are not always repeated.

Settings: Liquid, Diaphragm manometer

Cl[SiH2]Cl [dichlorosilane]
Settings	vapor or sublimation pressure
299.99 K	214.5 kPa [middle of 4 runs]
300 K	216.5 kPa and 212.1 kPa and 214.2 kPa
309.99 K	284.3 kPa
319.98 K	377.6 kPa
319.99 K	377.9 kPa
320 K	380.4 kPa and 381.43 kPa and 377.3 kPa
323.01 K	407.8 kPa
329.99 K	485.8 kPa
330.02 K	492.2 kPa
339.99 K	626.4 kPa [middle of 4 runs]
340 K	628.6 kPa
343.01 K	672.6 kPa
349.99 K	784.7 kPa and 786.4 kPa and 789 kPa
350 K	785 kPa
359.98 K	981.9 kPa
359.99 K	985.9 kPa [middle of 4 runs]
362.99 K	1052.1 kPa
369.98 K	1205 kPa
369.99 K	1205 kPa and 1209 kPa
379.99 K	1477 kPa [middle of 5 runs]
389.99 K	1779 kPa and 1784 kPa and 1780.5 kPa
399.99 K	2099 kPa and 2138 kPa
409.98 K	2559 kPa
410 K	2534 kPa
419.99 K	3016 kPa

Cl[SiH](Cl)Cl [trichlorosilane]
Settings	vapor or sublimation pressure [kPa]
310 K	121.89
320 K	167.53
330 K	225.35
340 K	297.4
350 K	385.6
360 K	492.1
370 K	619.6
380 K	770.2
380.5 K	778.2
385 K	854.6
390 K	946
395 K	1044.2

Cl[Si](Cl)(Cl)Cl [silicon tetrachloride]
Settings	vapor or sublimation pressure
332.99 K	113.02 kPa
340 K	139.15 kPa and 138.98 kPa
350.01 K	185.05 kPa
360 K	241.64 kPa
370 K	311.49 kPa
380 K	395.69 kPa
390 K	495.9 kPa
400 K	614 kPa
